In ChEMBL document CHEMBL2331317, “Synthesis and structure-activity relationships for 1-(4-(piperidin-1-ylsulfonyl)phenyl)pyrrolidin-2-ones as novel non-carboxylate inhibitors of the aldo-keto reductase enzyme AKR1C3” (Eur J Med Chem, 2013):
Where a chain is given by its changes, count along the chain named. Activity calls are given as the source filed them. No cut-off for these calls is given here.

Legend:
[1] = target: T1, Aldo-keto reductase family 1 member C1 (Homo sapiens, UniProt Q04828); test: Inhibition of His-tagged human AKR1C1 expressed in Escherichia coli BL21 (DE3) assessed as inhibition of reduction of non-fluorescent ketone probe to fluorescent alcohol after 1 hr by competitive fluorescence assay
T1 sequence (Q04828 whole entry): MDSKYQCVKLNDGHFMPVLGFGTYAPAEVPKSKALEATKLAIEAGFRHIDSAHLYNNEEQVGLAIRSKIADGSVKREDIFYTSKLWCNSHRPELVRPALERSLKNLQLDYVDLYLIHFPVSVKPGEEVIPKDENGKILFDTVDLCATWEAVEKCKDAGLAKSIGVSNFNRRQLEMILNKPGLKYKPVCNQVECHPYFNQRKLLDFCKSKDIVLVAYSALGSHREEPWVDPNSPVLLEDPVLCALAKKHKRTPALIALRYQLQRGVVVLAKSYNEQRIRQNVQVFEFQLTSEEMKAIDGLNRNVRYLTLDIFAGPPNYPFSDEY

[2] = target: T2, Aldo-keto reductase family 1 member C2 (Homo sapiens, UniProt P52895); test: Inhibition of His-tagged human AKR1C2 expressed in Escherichia coli BL21 (DE3) assessed as inhibition of reduction of non-fluorescent ketone probe to fluorescent alcohol after 1 hr by competitive fluorescence assay
T2 sequence (P52895 whole entry): T1 sequence (Q04828 whole entry) with T38V, R47H, L54V, C87S, V151M, R170H, Q172L

[3] = target: T3, Aldo-keto reductase family 1 member C3 (Homo sapiens, UniProt P42330); test: Inhibition of His-tagged human AKR1C3 expressed in Escherichia coli BL21 (DE3) assessed as inhibition of reduction of non-fluorescent ketone probe to fluorescent alcohol after 1 hr by competitive fluorescence assay
T3 sequence (P42330 whole entry): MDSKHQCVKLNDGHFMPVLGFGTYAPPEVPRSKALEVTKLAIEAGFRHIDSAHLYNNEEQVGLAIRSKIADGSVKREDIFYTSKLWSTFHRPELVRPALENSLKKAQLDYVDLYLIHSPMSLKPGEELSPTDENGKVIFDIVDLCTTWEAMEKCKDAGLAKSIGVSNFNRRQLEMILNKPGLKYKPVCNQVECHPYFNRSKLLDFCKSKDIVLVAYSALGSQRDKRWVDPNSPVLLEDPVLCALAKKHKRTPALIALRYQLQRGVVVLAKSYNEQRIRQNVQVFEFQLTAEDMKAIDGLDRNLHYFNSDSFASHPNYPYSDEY

[4] = target: T4, Aldo-keto reductase family 1 member C4 (Homo sapiens, UniProt P17516); test: Inhibition of His-tagged human AKR1C4 expressed in Escherichia coli BL21 (DE3) assessed as inhibition of reduction of non-fluorescent ketone probe to fluorescent alcohol after 1 hr by competitive fluorescence assay
T4 sequence (P17516 whole entry): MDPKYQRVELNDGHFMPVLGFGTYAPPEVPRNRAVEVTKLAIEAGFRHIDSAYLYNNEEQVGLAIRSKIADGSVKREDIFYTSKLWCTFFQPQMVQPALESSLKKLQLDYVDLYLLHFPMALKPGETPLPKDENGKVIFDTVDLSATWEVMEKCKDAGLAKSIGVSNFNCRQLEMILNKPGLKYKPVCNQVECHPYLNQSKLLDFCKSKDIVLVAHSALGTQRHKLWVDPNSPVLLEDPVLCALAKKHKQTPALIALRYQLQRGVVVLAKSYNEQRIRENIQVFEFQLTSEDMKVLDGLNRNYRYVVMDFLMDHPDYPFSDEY

[5] = target: T3, Aldo-keto reductase family 1 member C3; test: Inhibition of recombinant AKR1C3 (unknown origin) overexpressed in human HCT116 cells assessed as inhibition of aerobic reduction of dinitrobenzamide PR-104A to its hydroxylamine metabolite by LC-MS/MS assay; assay type: cell-based, HCT-116
[6] = target: T5, Prostaglandin G/H synthase 1 (Homo sapiens, UniProt P23219); test: Inhibition of COX1 (unknown origin) at 10 uM
[7] = target: T6, Prostaglandin G/H synthase 2 (Homo sapiens) (UniProt P35354); test: Inhibition of COX2 (unknown origin) at 10 uM
T6 sequence (whole entry): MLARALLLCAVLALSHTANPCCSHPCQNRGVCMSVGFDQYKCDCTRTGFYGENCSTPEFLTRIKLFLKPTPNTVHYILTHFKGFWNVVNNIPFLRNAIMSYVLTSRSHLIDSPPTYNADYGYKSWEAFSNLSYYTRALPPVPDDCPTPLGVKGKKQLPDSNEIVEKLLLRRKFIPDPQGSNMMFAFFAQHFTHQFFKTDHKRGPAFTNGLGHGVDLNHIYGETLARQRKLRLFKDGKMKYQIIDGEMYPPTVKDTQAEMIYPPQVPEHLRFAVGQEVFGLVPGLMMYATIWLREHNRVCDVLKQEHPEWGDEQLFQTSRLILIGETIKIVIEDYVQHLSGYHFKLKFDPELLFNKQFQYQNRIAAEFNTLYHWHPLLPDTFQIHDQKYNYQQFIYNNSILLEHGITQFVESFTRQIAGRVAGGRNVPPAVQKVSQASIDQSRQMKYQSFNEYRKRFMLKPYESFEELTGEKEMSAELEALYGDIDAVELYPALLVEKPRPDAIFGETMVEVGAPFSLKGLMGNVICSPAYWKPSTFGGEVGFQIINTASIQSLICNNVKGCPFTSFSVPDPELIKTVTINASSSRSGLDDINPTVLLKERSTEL

[8] = target: T5, Prostaglandin G/H synthase 1; test: Inhibition of COX1 (unknown origin)
[9] = target: T7, Prostaglandin G/H synthase 2 (Homo sapiens, UniProt P35354); test: Inhibition of COX2 (unknown origin)
T7 sequence (P35354 whole entry): T6 sequence (whole entry)

[10] = target: T1, Aldo-keto reductase family 1 member C1; test: Inhibition of AKR1C1 (unknown origin)
[11] = target: T4, Aldo-keto reductase family 1 member C4; test: Inhibition of AKR1C4 (unknown origin)

T5 sequence (P23219 whole entry): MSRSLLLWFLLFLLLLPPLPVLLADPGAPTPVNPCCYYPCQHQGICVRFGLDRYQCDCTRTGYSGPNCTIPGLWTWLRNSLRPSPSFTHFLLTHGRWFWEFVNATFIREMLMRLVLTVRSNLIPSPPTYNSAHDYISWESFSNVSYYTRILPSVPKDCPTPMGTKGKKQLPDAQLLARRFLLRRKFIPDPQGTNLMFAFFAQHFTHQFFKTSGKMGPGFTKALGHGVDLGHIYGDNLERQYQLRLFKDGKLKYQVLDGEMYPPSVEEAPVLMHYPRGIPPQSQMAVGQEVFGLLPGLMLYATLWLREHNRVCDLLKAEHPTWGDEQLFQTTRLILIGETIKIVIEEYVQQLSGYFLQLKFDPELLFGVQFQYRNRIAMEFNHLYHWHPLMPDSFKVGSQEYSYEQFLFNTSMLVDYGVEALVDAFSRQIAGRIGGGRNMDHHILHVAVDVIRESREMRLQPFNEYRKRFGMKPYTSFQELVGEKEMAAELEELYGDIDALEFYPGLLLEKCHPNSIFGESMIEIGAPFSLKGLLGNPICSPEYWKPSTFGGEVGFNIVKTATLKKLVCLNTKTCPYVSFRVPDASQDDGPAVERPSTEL

Compound	IC50 [1]	IC50 [2]	IC50 [3]	IC50 [4]	other results
CC1CCCCN1S(=O)(=O)c1ccc(N2CCCS2(=O)=O)cc1 (stereo unspecified)	> 30 µM	> 30 µM	5.22 µM	> 30 µM	
Cc1cc(S(=O)(=O)N2CCCCC2C)ccc1N1CCCC1=O (stereo unspecified)			10.2 µM		
CC1CCCN(S(=O)(=O)c2ccc(N3CCCC3=O)cc2)C1 (stereo unspecified)	> 30 µM	> 30 µM	0.084 µM	> 30 µM	IC50 [5]: 15 nM
O=C1CCCN1c1ccc(S(=O)(=O)N2CCC[C@H](O)C2)cc1	> 30 µM	> 30 µM	8.98 µM	> 30 µM	
O=C1CCCN1c1ccc(S(=O)(=O)N2CCOCC2)cc1			> 30 µM		
Cc1cc(S(=O)(=O)N2CCCCC2C)c(C)cc1N1CCCC1=O (stereo unspecified)			> 30 µM		
CC1CCCCN1S(=O)(=O)c1ccc(N2CCCCC2=O)cc1 (stereo unspecified)	> 30 µM	> 30 µM	3.77 µM	> 30 µM	
O=C1CCCN1c1ccc(S(=O)(=O)N2CCCCC2)cc1	> 30 µM	> 30 µM	0.14 µM	> 30 µM	inhibition [6]: inactive; inhibition [7]: inactive
O=C1CCCN1c1ccc(S(=O)(=O)N2CCCC2)cc1			> 30 µM		
O=C(O)c1ccccc1Nc1cccc(C(F)(F)F)c1 [FLUFENAMIC ACID]					IC50 [8]: 3 µM
CC1CCCCN1S(=O)(=O)c1ccccc1N1CCCC1=O (stereo unspecified)			> 30 µM		
CC1CCCCN1S(=O)(=O)c1cccc(N2CCCC2=O)c1 (stereo unspecified)			> 30 µM		
CC(C)C(=O)Nc1ccc(S(=O)(=O)N2CCCCC2C)cc1 (stereo unspecified)			12.5 µM		
CC1CCCCN1S(=O)(=O)c1ccc(N2CCCC2=O)cn1 (stereo unspecified)	> 30 µM	> 30 µM	2.77 µM	> 30 µM	
Cc1ccc(Cl)c(Nc2ccccc2C(=O)O)c1Cl [MECLOFENAMIC ACID]					IC50 [9]: 700 nM; IC50 [8]: 0.22 µM
C[C@@H]1CN(S(=O)(=O)c2ccc(N3CCCC3=O)cc2)C[C@H](C)N1			21.2 µM		
CC1CCCCN1S(=O)(=O)c1ccc(N2CCC2=O)cc1 (stereo unspecified)	> 30 µM	> 30 µM	5.61 µM	> 30 µM	
Cc1cccc(Nc2ccccc2C(=O)O)c1C [MEFENAMIC ACID]					IC50 [9]: 2900 nM; IC50 [10]: 3.91 µM; IC50 [8]: 25 µM; IC50 [11]: > 100 µM
C[C@@H]1CCCCN1S(=O)(=O)c1ccc(N2CCCC2=O)cc1	> 30 µM	> 30 µM		> 30 µM	
CC1CCCCN1S(=O)(=O)c1ccc(N2C(=O)CCC2=O)cc1 (stereo unspecified)			> 30 µM		
CC1CCCCN1S(=O)(=O)c1ccc(N2C(=O)c3ccccc3C2=O)cc1 (stereo unspecified)			> 30 µM		
C[C@H]1CCC[C@H](C)N1S(=O)(=O)c1ccc(N2CCCC2=O)cc1	> 30 µM	> 30 µM	0.056 µM	> 30 µM	IC50 [5]: 22 nM
O=C1CCCN1c1ccc(S(=O)(=O)N2CCC[C@@H](O)C2)cc1	> 30 µM	> 30 µM	1.55 µM	> 30 µM	
CC1CCCCN1Cc1ccc(N2CCCC2=O)cc1 (stereo unspecified)			> 30 µM		
CC1CCCCN1S(=O)(=O)c1ccc(NC(=O)C(C)(C)C)cc1 (stereo unspecified)	> 30 µM	> 30 µM	5.94 µM	> 30 µM	
CC1CCCCN1C(=O)c1ccc(N2CCCC2=O)cc1 (stereo unspecified)			> 30 µM		
O=C1CCCN1c1ccc(S(=O)(=O)N2CCc3ccccc3C2)cc1			0.052 µM		
CC1CCCCN1S(=O)(=O)c1ccc(N2CCCC2=O)cc1 (racemic)	> 30 µM	> 30 µM		> 30 µM	inhibition [6]: inactive; inhibition [7]: inactive
CC1CCN(S(=O)(=O)c2ccc(N3CCCC3=O)cc2)CC1	> 30 µM	> 30 µM	0.2 µM	> 30 µM	
